{"source": "patent US6117661A", "about": "“Mutant mono-oxygenase cytochrome P450cam” (BG plc, priority 1995, dated 2000)", "key": {"Wild type P450cam [1]": {"biological_target": "T1, Wild type P450cam (Pseudomonas putida, UniProt P00183)", "format": "binding, P. putida", "conditions": "Soret band 418 nm to 392 nm"}, "Wild type P450cam [2]": {"biological_target": "T1, Wild type P450cam", "assay": "Substrate binding constant Kapp, method of Sligar", "design": "made in house; host or cells: E. coli JM109, vector pRH1091", "source_text": "(§1) Binding of potential substrates was investigated by spectroscopic methods. […] This haem spin-state shift is accompanied by an increase in the haem reduction potential which enables the physiological electron-transfer partner putidaredoxin to reduce P-450cam and initiate the catalytic hydroxylation cycle^26. The haem spin state shift is thus a qualitative indication of the likelihood of molecules shown in Tables 1 and 2 being oxidised by the wild-type and mutant P-450cam enzymes.\n(§2) ^a Values are the average of two independent measurements using the\n(§3) method of Sligar (S. G. Sligar, Biochemistry, 1976, 15, 5399-5406). The\n(§4) value of Kapp is strongly dependent on the concentration of K^+\n(§5) in the buffer. At [K^+ ] > 150 mM, Kapp for camphor is 0.6 μM\n(§6) for both wildtype and Y96A. Data in this table were determined at [K^\n(§7) ] = 70 mM in phosphate buffer, pH 7.4, in order to avoid # salting out o\n(§8) substrates at higher ion concentrations."}, "P-450cam mutant Y96A": {"biological_target": "T2, P-450cam mutant Y96A (Pseudomonas putida, UniProt P00183, Y97A)", "T2 construct": "made in house; host or cells: E. coli JM109, vector pRH1091", "assay": "Substrate binding constant Kapp, method of Sligar", "source_text": "as §1, §2, §3, §4, §5, §6, §7, §8"}, "P450cam WT": {"biological_target": "T3, P450cam WT (Pseudomonas putida, UniProt P00183)", "T3 construct": "reconstituted with putidaredoxin and putidaredoxin reductase", "assay": "Product distribution following oxidation of substrates (GC)", "format": "biochemical, P. putida", "conditions": "substrate phenanthrene", "method": "(§9) A buffered solution (50 mM Tris.HCI, pH 7.4), typically 3 ml in volume, containing 10 uM putidaredoxin, 2 uM putidaredoxin reductase, 1 uM cytochrome P-450cam mono-oxygenase (wild-type or mutant), 200 mM KCI, 50 ug/ml bovine liver catalase (Sigma), and 1 mM target organic compound such as cyclohexylbenzene (added as a 0.1 M stock in ethanol) was preincubated at 30° C. for 5 minutes. The enzymatic reaction was initiated by adding NADH to a total concentration of 2 mM. Further four aliquots of NADH (to increase the NADH concentration by 1 mM each time) were added in intervals of 10 minutes, and 30 minutes into the incubation one aliquot of substrate (to increase the concentration by 1 mM) was also added. The reaction was quenched after 60 minutes by adding 0.5 ml chloroform and vortexing the mixture. The phases were separated by centrifugation (4000 g) at 4° C. The chloroform layer was analyzed by gas chromatography.\n(§10) For many substrate compounds such as cyclohexylbenzene for which not all the P-450cam-mediated oxidation products are commercially available, the chloroform extracts are evaporated to dryness under a stream of nitrogen. The residues were extracted with hexane and the oxidation products separated by high performance liquid chromatography, eluting with a hexane/isopropanol gradient. The purified products were then identified by mass spectroscopy and particularly nuclear magnetic resonance spectroscopy.\n(§11) The NADH concentration can be monitored at 340 nm and, in all cases, more substrates and NADH are added during the incubation."}, "[3]": {"biological_target": "T4, P450cam active site mutant Y96L (also C334A) (Pseudomonas putida, UniProt P00183, C335A/Y97L)", "T4 construct": "reconstituted with putidaredoxin and putidaredoxin reductase", "format": "biochemical, P. putida", "conditions": "substrate phenanthrene", "method": "as §9, §10, §11"}, "[4]": {"biological_target": "T5, P450cam active site mutant Y96V (also C334A) (Pseudomonas putida, UniProt P00183, C335A/Y97V)", "T5 construct": "reconstituted with putidaredoxin and putidaredoxin reductase", "format": "biochemical, P. putida", "conditions": "substrate phenanthrene", "method": "as §9, §10, §11"}, "[5]": {"biological_target": "T6, P450cam active site mutant Y96A (also C334A) (Pseudomonas putida, UniProt P00183, C335A/Y97A)", "T6 construct": "reconstituted with putidaredoxin and putidaredoxin reductase", "format": "biochemical, P. putida", "conditions": "substrate phenanthrene", "method": "as §9, §10, §11"}, "[6]": {"biological_target": "T7, P450cam active site mutant Y96F (also C334A) (Pseudomonas putida, UniProt P00183, C335A/Y97F)", "T7 construct": "reconstituted with putidaredoxin and putidaredoxin reductase", "format": "biochemical, P. putida", "conditions": "substrate phenanthrene", "method": "as §9, §10, §11"}, "[7]": {"biological_target": "T8, P450cam active site mutant F87A-F96G-F193A (Pseudomonas putida, UniProt P00183, C335A/F194A/F88A/Y97G)", "T8 construct": "reconstituted with putidaredoxin and putidaredoxin reductase", "format": "biochemical, P. putida", "conditions": "substrate phenanthrene", "method": "as §9, §10, §11"}, "P450cam Mutant Y96A": {"biological_target": "P450cam Mutant Y96A (Pseudomonas putida, UniProt P00183, C335A/Y97A)", "format": "binding, P. putida"}}, "data": [{"smiles": "CC12CCC(CC1=O)C2(C)C", "note": "(single isomer, unassigned) [camphor]", "values": [{"measurement": "haem spin-state conversion on substrate binding", "setting": "Wild type P450cam [1]", "value": "fully converted the haem to the 5-co-ordinated, high-spin form"}, {"measurement": "Kd", "setting": "Wild type P450cam [2]", "value": 600, "unit": "nM"}, {"measurement": "Kd", "setting": "P-450cam mutant Y96A", "value": 600, "unit": "nM"}]}, {"smiles": "c1ccc2c(c1)ccc1ccccc12", "note": "[Phenanthrene]", "values": [{"measurement": "Total products WT", "setting": "P450cam WT", "value": 0.075, "unit": "area/10^6"}, {"measurement": "Total products Y96L", "setting": "[3]", "value": 2.8, "unit": "area/10^6"}, {"measurement": "Total products Y96V", "setting": "[4]", "value": 1.6, "unit": "area/10^6"}, {"measurement": "Total products Y96A", "setting": "[5]", "value": 7.0, "unit": "area/10^6"}, {"measurement": "Total products Y96F", "setting": "[6]", "value": 4.5, "unit": "area/10^6"}, {"measurement": "Total products F87A-F96G-F193A", "setting": "[7]", "value": 0.065, "unit": "area/10^6"}, {"measurement": "Mutant Y96A Vs DTT", "setting": "P450cam Mutant Y96A", "value": 20}, {"measurement": "Mutant Y96A ΔSpin high/low", "setting": "P450cam Mutant Y96A; -- = no shift, nd = not determined", "value": 20}]}]}
